We go through three substances from patent US20020165127A1, “Methods for treating insulin resistance and identifying patients at risk for the disease” (SuperGen, Inc., priority 1996, published 2002).

The subject of test [1] is patient suffering from reactive hypoglycemia. Briefly: Treatment of reactive hypoglycemia. Type of test: in vivo, human. The note with it: long-acting controlled release formulation; for IGF-2 levels: serum. On the procedure: A patient suffering from reactive hypoglycemia has a serum sample evaluated for IGF-1 and IGF-2 levels. IGF-1 levels are normal but IGF-2 levels are more than two standard deviations below the expected levels for a person of the same age, sex and body weight. The patient is treated by administering IGF-2 or 22K-GH in a long-acting controlled release formulation.

The target of the next test is bp3 (Homo sapiens, UniProt P17936). The following applies: cited from earlier work.
Another test relates to IGF-1 and IGF-2. The note with it: cited from earlier work.

Chain of bp3 (P17936 28-291): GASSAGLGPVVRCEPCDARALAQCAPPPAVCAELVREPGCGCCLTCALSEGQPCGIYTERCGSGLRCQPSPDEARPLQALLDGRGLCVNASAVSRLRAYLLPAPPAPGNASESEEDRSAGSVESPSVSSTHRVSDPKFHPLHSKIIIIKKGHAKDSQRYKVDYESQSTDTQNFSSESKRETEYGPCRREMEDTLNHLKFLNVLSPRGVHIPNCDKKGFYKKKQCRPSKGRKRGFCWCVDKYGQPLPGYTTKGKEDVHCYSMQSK

For the substance “IGF-2: IGF polypeptide; competes with insulin for binding to the insulin receptor”, in test [1], the hypoglycemic episodes entry is “less frequent” and the IGF-2 levels result is listed as “increased”. Besides, the “affinity to bp3” value with bp3 is “equal affinity”.
For the substance “22K-GH: the larger human growth hormone isoform”, in test [1], the hypoglycemic episodes result is “less frequent” and the IGF-2 levels result is “increased”. In addition, in the test on IGF-1 and IGF-2, the “effects on the synthesis and secretion of IGFs” value was “stimulate both IGF-1 and IGF-2”.
Regarding “IGF-1: IGF polypeptide in serum that binds bp3”, in the test with bp3, the “affinity to bp3” value was “equal affinity”.
